Laboratory results as given in the supplement of paper PMC10307832.

Columns and labels:
Experiment in all cases: relative viability (nuclei count vs DMSO), 5 days (fraction); higher = more cells survive
[1] = compound: CC1=CC(=CC=C1)NC2=NC(=CS2)C3=CC=NC=C3 + O=C(CCCCCCC(=O)Nc1ccccc1)NO [Vorinostat] (partner 1 µM)
Outline: (§1)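 For relative viability, nuclei counts in treated wells were divided by those in vehicle wells. Lung cancer cell lines had been pin-tool dosed in 1536-well plates the day after seeding and cultured for 5 days, then fixed and stained in one step (final 0.05% Triton X-100, 1% formaldehyde, 1 ug/ml Hoechst) and imaged at 4×. Doses were one drug alone or a fixed anchor-drug dose plus five library-drug doses (not always all listed) in √10 steps, and values are duplicate-plate medians.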

Masitinib + Alpelisib = compound: Cc1ccc(NC(=O)c2ccc(CN3CCN(C)CC3)cc2)cc1Nc1nc(-c2cccnc2)cs1 [Masitinib] + Cc1nc(NC(=O)N2CCC[C@H]2C(N)=O)sc1-c1ccnc(C(C)(C)C(F)(F)F)c1 [Alpelisib] (partner 2 µM)
Outline: as §1

Masitinib + Lapatinib = compound: Cc1ccc(NC(=O)c2ccc(CN3CCN(C)CC3)cc2)cc1Nc1nc(-c2cccnc2)cs1 [Masitinib] + CS(=O)(=O)CCNCc1ccc(-c2ccc3ncnc(Nc4ccc(OCc5cccc(F)c5)c(Cl)c4)c3c2)o1 [Lapatinib] (partner 2 µM)
Outline: as §1

[2] = compound: CC1=CC(=CC=C1)NC2=NC(=CS2)C3=CC=NC=C3 + Nc1ncn([C@H]2C[C@H](O)[C@@H](CO)O2)c(=O)n1 [Decitabine] (partner 2 µM)
Outline: as §1

Cell Line | relative viability ([1]; first compound 0.08 µM) | relative viability ([1]; first compound 0.253 µM) | relative viability ([1]; first compound 0.8 µM) | relative viability ([1]; first compound 2.53 µM) | relative viability ([1]; first compound 8 µM) | relative viability (Masitinib + Alpelisib; first compound 0.01 µM) | relative viability (Masitinib + Alpelisib; first compound 0.03162 µM) | relative viability (Masitinib + Alpelisib; first compound 0.1 µM) | relative viability (Masitinib + Alpelisib; first compound 0.3162 µM) | relative viability (Masitinib + Alpelisib; first compound 1 µM) | relative viability (Masitinib + Lapatinib; first compound 0.01 µM) | relative viability (Masitinib + Lapatinib; first compound 0.03162 µM) | relative viability (Masitinib + Lapatinib; first compound 0.1 µM) | relative viability (Masitinib + Lapatinib; first compound 0.3162 µM) | relative viability (Masitinib + Lapatinib; first compound 1 µM) | relative viability ([2]; first compound 0.08 µM) | relative viability ([2]; first compound 0.253 µM) | relative viability ([2]; first compound 0.8 µM) | relative viability ([2]; first compound 2.53 µM) | relative viability ([2]; first compound 8 µM)
HCC-366 | 0.248 | 0.172 | 0.255 | 0.186 | 0.198 | 0.33 | 0.294 | 0.376 | 0.315 | 0.382 | 0.731 | 1.1 | 0.785 | 0.945 | 1.13 | 0.329 | 0.357 | 0.308 | 0.309 | 0.263
HCC-827 | 0.778 | 0.772 | 0.819 | 0.651 | 0.653 | 0.91 | 0.994 | 1.1 | 0.928 | 0.997 | 0.198 | 0.189 | 0.19 | 0.168 | 0.201 | 0.298 | 0.317 | 0.352 | 0.287 | 0.328
HOP-62 | 0.531 | 0.605 | 0.591 | 0.584 | 0.595 | 0.777 | 1.09 | 1.18 | 1.07 | 0.83 | 0.814 | 1.11 | 0.854 | 1.31 | 0.937 | 0.219 | 0.218 | 0.261 | 0.244 | 0.247
IA-LM | 0.884 | 0.954 | 0.942 | – | 0.78 | 0.823 | 0.758 | 1.07 | 0.762 | 0.787 | – | – | 0.891 | 0.928 | 1.07 | – | – | – | – | –
LC-2-ad | 0.607 | 0.647 | 0.688 | 0.624 | 0.658 | 0.866 | 0.822 | 0.843 | 0.815 | 0.844 | 0.762 | 1.02 | 0.874 | 0.994 | 0.962 | 0.754 | 0.776 | 0.793 | 0.799 | 0.69
LCLC-97TM1 | 0.558 | 0.741 | 0.623 | 0.601 | 0.988 | 0.25 | 0.241 | 0.275 | 0.402 | 0.27 | 0.767 | 1.13 | 0.673 | 1.57 | 0.715 | 0.204 | 0.204 | 0.233 | 0.254 | 0.245
LCLC-103H | 0.635 | 0.69 | 0.679 | 0.667 | 0.567 | 0.711 | 0.913 | 0.917 | 0.992 | 0.971 | – | – | – | – | – | 0.72 | 0.664 | 0.672 | 0.665 | 0.573
LK-2 | 0.356 | 0.307 | 0.527 | 0.402 | 1 | 1.28 | 0.609 | 1.38 | 1.15 | 1.3 | 1.06 | 0.836 | 1.12 | 1.06 | 0.941 | 0.298 | 0.273 | 0.304 | 0.204 | 0.563
LOU-NH91 | 0.766 | 0.776 | 0.887 | 0.861 | 0.436 | 0.711 | 0.662 | 0.819 | 0.683 | 0.713 | 0.781 | 0.633 | 0.786 | 0.563 | 0.708 | 0.744 | 0.797 | 0.728 | 0.825 | 0.78
LU99A | 0.445 | 0.601 | 0.582 | 0.443 | 0.479 | 0.554 | 0.544 | 0.549 | 0.547 | 0.449 | 0.953 | 1.1 | 1.05 | 1.05 | 0.981 | 0.889 | 0.939 | 0.787 | 0.709 | 0.879
NCI-H441 | 0.705 | 0.955 | 0.842 | 0.746 | 0.76 | 0.675 | 0.822 | 0.873 | 0.703 | 0.653 | – | – | – | – | – | 0.266 | 0.263 | 0.302 | 0.226 | 0.243
NCI-H522 | 0.91 | 1.03 | 1.01 | 0.924 | 0.849 | – | – | – | – | – | – | – | – | – | – | 0.702 | 0.63 | 0.708 | 0.801 | 0.677
NCI-H1299 | – | – | – | – | – | 1.1 | 1.1 | 1.27 | 1.11 | 1.05 | 0.922 | 0.961 | 0.991 | 0.976 | 0.945 | – | – | – | – | –
NCI-H1563 | – | – | – | – | – | 1.02 | 0.964 | 0.839 | 1.13 | 0.931 | 0.945 | 0.941 | 0.969 | 0.945 | 0.732 | – | – | – | – | –
NCI-H1648 | 0.279 | 0.455 | 0.548 | 0.422 | 0.349 | – | – | – | – | – | – | – | – | – | – | 0.345 | 0.42 | 0.496 | 0.356 | 0.376
NCI-H1650 | 0.587 | 0.533 | 0.489 | 0.51 | 0.404 | – | – | – | – | – | 0.607 | 0.761 | 0.746 | 0.774 | 0.612 | 0.384 | 0.38 | 0.478 | 0.408 | 0.378
NCI-H1703 | – | – | – | – | – | 0.226 | 0.255 | 0.228 | 0.171 | 0.197 | 0.764 | 0.857 | 0.436 | 0.479 | 0.256 | – | – | – | – | –
NCI-H1792 | – | – | – | – | – | 0.69 | 0.203 | 0.61 | 0.65 | 0.698 | 0.721 | 0.405 | 0.874 | 0.846 | 0.995 | 0.479 | 0.384 | 0.481 | 0.548 | 0.449
NCI-H2228 | 0.343 | 0.514 | 0.42 | 0.412 | 0.824 | 0.897 | 0.708 | 0.835 | 0.685 | 0.844 | 0.972 | 1.32 | 1.14 | 1.38 | 1.06 | – | – | – | – | –
NCI-H2342 | 0.749 | 0.753 | 0.721 | 0.716 | 0.745 | – | – | – | – | – | – | – | – | – | – | 0.691 | 0.773 | 0.657 | 0.77 | 0.761
SW 900 | 0.433 | 0.357 | 0.516 | 0.33 | 0.188 | – | – | – | – | – | – | – | – | – | – | 0.443 | 0.381 | 0.353 | 0.389 | 0.441
